What was measured:
[1] = system: ON1 (adenosine aptamer) (DNA, aptamer) ACCTGGGGGAGTATTGCGGAGGAAGGT; experiment: luminescence displacement assay (complex 1/ON1/ON2); settings: 100 mM NaCl, 10 mM MgCl2, 75 mM K+, 20 mM Tris-HCl pH 7.4, 37 °C
[2] = system: CCR5-DEL (DNA, single strand) CTCATTTTCCATACATTAAAGATAGTCAT; experiment: luminescence enhancement; settings: 20 mM Tris-HCl pH 7.4; 1 μM compound, 5 μM DNA
[3] = system: F21T (DNA, G4) GGGTTAGGGTTAGGGTTAGGG; experiment: FRET melting; settings: 0.2 μM DNA; 3 μM compound
[4] = system: 3'-side loop, 5'-G3T3G3T3G3TnG3-3', n = 1 (DNA, G4) GGGTTTGGGTTTGGGTGGG; experiment: luminescence enhancement; settings: 1 μM compound; 2.3-fold enhancement
[5] = system: ds17 (DNA, duplex) CCAGTTCGTAGTAACCC/GGGTTACTACGAACTGG; experiment: G4-FID (thiazole orange displacement); settings: Tris-HCl buffer; thiazole orange displaced; 0.25 μM DNA; under 50% displaced at highest concentration tested
[6] = system: ON2m (DNA, single strand) AAGTTTCCGACTCCCCCAGGTGCCTTTGAA; experiment: luminescence enhancement; settings: ON2m used in place of ON2 in adenosine assay; 80 μM adenosine
[7] = system: ON2 (DNA, G4) GGGTTTGGGACTCCCCCAGGTGGGTTTGGG; experiment: G4-FID (thiazole orange displacement); settings: Tris-HCl buffer; thiazole orange displaced; 0.25 μM DNA
[8] = system: central loop, 5'-G3T3G3TnG3T3G3-3', n = 15 (DNA, G4) GGGTTTGGGTTTTTTTTTTTTTTTGGGTTTGGG; experiment: luminescence enhancement; settings: 1 μM compound; 8.3-fold enhancement
[9] = system: 5'-side loop, 5'-G3TnG3T3G3T3G3-3', n = 1 (DNA, G4) GGGTGGGTTTGGGTTTGGG; experiment: luminescence enhancement; settings: 1 μM compound; 2.7-fold enhancement
[10] = system: 5'-side loop, 5'-G3TnG3T3G3T3G3-3', n = 15 (DNA, G4) GGGTTTTTTTTTTTTTTTGGGTTTGGGTTTGGG; experiment: luminescence enhancement; settings: 1 μM compound; 6.9-fold enhancement
[11] = system: 3'-side loop, 5'-G3T3G3T3G3TnG3-3', n = 15 (DNA, G4) GGGTTTGGGTTTGGGTTTTTTTTTTTTTTTGGG; experiment: luminescence enhancement; settings: 1 μM compound; 7.2-fold enhancement
[12] = system: central loop, 5'-G3T3G3TnG3T3G3-3', n = 1 (DNA, G4) GGGTTTGGGTGGGTTTGGG; experiment: luminescence enhancement; settings: 1 μM compound; 2.4-fold enhancement
[13] = system: F10T (DNA, hairpin, HEG linker between nt 8 and 9) TATAGCTATATAGCTATAT; experiment: FRET melting; settings: 0.2 μM DNA; 3 μM compound
[14] = ON2 capture strand, 200 μM highest tested

O=c1ccn([C@@H]2O[C@H](CO)[C@@H](O)[C@H]2O)c(=O)[nH]1
binding [1, 14]: no

Nc1ncnc2c1ncn2[C@@H]1O[C@H](CO)[C@@H](O)[C@H]1O
binding ([1]; ON2 capture strand displaced): yes

Nc1nc2c(ncn2[C@@H]2O[C@H](CO)[C@@H](O)[C@H]2O)c(=O)[nH]1
binding [1, 14]: no

Cc1cccnc1-c1[c-]cccc1.Cc1cccnc1-c1[c-]cccc1.[Ir+3].c1ccc(-c2ccc3ccc4ccc(-c5ccccc5)nc4c3n2)cc1
binding [2]: weak | ΔTm [3]: ~ 7.0 °C | binding [4]: yes | binding [5]: weak | binding [6]: weak | G4DC50 [7]: 7.0 µM | binding [8]: yes | binding [9]: yes | binding [10]: yes | binding [11]: yes | binding [12]: yes | ΔTm [13]: 3.0 °C

Nc1ccn([C@@H]2O[C@H](CO)[C@@H](O)[C@H]2O)c(=O)n1
binding [1, 14]: no
